No end group written: not given here.
Experiments:
luciferase in Huh7 cells = assay: Luciferase assay with siRNA-CPP conjugates, Huh7; format: cell-based, human; conditions: Huh cell line, siRNA 400 nM, 16 hours
Method: Huh7 (human hepatocellular carcinoma) cells obtained from ATCC was cultured in a RPMI 1640 medium (Hyclon) containing 10% fetal bovine serum (Invitrogen Co., Carlsbad, Calif., USA), […] L-glutamine, 100 ug/ml penicillin and 100 units/ml of streptomycin at 37° C., 5% CO2 incubator.
(§1) 2×10^5 of Huh7 cells were inserted into each well of a 24 well plate and were grown. Transient transfection on the cells was performed using 2 ug of luciferase objective DNA and lipofectamin 2000 (Invitrogen Co., Carlsbad, Calif., USA). After 4 hours, lipofectamin 2000 was perfectly washed with PBS several times; siRNA of final concentration of […] was treated in 500 ul of Opti-MEM (Invitrogen Co., Carlsbad, Calif., USA) and was reacted at 37° C. incubator for 16 hours. To terminate the reaction, cells were washed with PBS and proteins were lysed using Reporter Lysis Buffer (Progema Co., Madison, Wis., USA) solution and the luminescence was measured by luminometer (Turner BioSystem, Sunnyvale, Calif., USA) using luciferase reagent (Promega Co., Madison, Wis., USA). Efficacy of siRNA was corrected by Bradford protein assay.

luciferase in CHO cell = assay: Luciferase assay with siRNA-CPP conjugates, CHO; format: cell-based
Method: as §1
To verify cell penetrating property of pep1, siRNA for luciferase purpose was produced produced and luciferase activation was measured using Huh7 (human hepatocelular carcinoma) cells and CHO cell line. The result verified that activation of penetratine and pep1 in siRNA combined with luciferase was reduced approx. 28%, 20% compared with penetratin and pep1 in siRNA combined with control in Huh cell line. […]

Substance: siLuc conjugation with Mercaptoacetyl-Ahx-EARPALLTSRLRFIPK (EARPALLTSRLRFIPK-OH; not fully specified (N-terminus); printed as Mercaptoacetyl-Ahx-EARPALLTSRLRFIPK; also: conjugated to luciferase siRNA; UniProt O14746 611-626, looked up, fragment) [siLuc-pep1, luciferase siRNA conjugated to pep1 via thiol-maleimide]
- reduction of luciferase activation compared with the same peptide in siRNA combined with control (luciferase in Huh7 cells): ~20%
- inhibition of luciferase activity (luciferase in CHO cell): about 30%

Reference: US10967000B2, “Cell-penetrating peptide, conjugate comprising same and composition comprising same” (GemVax & KAEL Co., Ltd., priority 2012, dated 2021)
